Reference: US6635629B2, “3-nitrogen-6,7-dioxygen steroids and uses related thereto” (Inflazyme Pharmaceuticals Ltd., priority 2000, dated 2003)
pIC50: −log10 of the molar value. Converted amounts (≈) assume the structure as drawn.

Key:
[1] = test system: sensitized Brown Norway rats; experiment: Ovalbumin-induced accumulation of inflammatory cells in lung lavage fluid of sensitized Brown Norway rats; type: in vivo, rat; details: p.o.
Experimental: The ability of a compound to inhibit the allergen-induced accumulation of inflammatory cells such as eosinophils and neutrophils in the lavage fluid obtained from sensitized animals is indicative of that compound's anti-asthma activity. […] The test is conducted as follows.
Male Brown Norway rats are sensitized to ovalbumin by single intraperitoneal injection of 1 mg ovalbumin adsorbed to 100 mg A(OH)3 (alum) in 1 ml sterile saline (saline control rats receive only sterile saline) on day 1, and allowed to sensitize until day 21. […] Rats are challenged with 0.5% ovalbumin in saline generated using a Devillbis nebulizer for 60 min on day 21.
Forty-eight hrs after challenge, animals are sacrificed with an overdose of intraperitoneally-delivered sodium pentobarbitol and the lungs are lavaged with cold 2×7 ml phosphate buffered saline. The recovered lavage fluid is placed on ice. The bronchoalveolar lavage fluid is centrifuged and the supernatant removed. The pellet is resuspended in phosphate buffered saline at 4° C. Cytospins are prepared and stained for differentiation and enumeration of cell types.
Test compound was administered in 300 μl corn oil (Tables 7 and 8) or water (Table 9), which were used as vehicles. Control animals received 300 μl corn oil or water alone, i.e., no drug. […] A negative value in Table 7, 8, or 9 indicates an exacerbation of the effect over the control animal.

[2] = Pharmacokinetics in the rat; type: in vivo; details: plasma; for bioavailability: po
[3] = Pharmacokinetics in the monkey; type: in vivo; details: plasma; for bioavailability: po
physchem = details: water
mouse ear edema = experiment: Irritant-induced (phorbol 12-myristate 13-acetate) mouse ear edema; type: in vivo; details: 15 mg/kg orally in 45% β-cyclodextrin in saline; 3 hours after PMA; compared to control animals
Experimental: A number of mice are uniquely identified by placing a mark with an indelible marker on their tail. Mice are dosed orally with 15 mg/kg test compound in 100 μl of 45% β-cyclodextrin in saline. Mice are briefly anaesthesized with 2% halothane, and 2 μg of phorbol 12-myristate 13-acetate in 25 μl of acetone is applied to the inner and outer sides of the left ear of the mouse. Acetone is applied to the right ear of the mouse in the same manner to serve as a vehicle control. Control animals receive the same treatment but without any test compound. After 3 hours, mice are sacrificed by cervical dislocation, and a standard sized biopsy is excised from the ears and weighed to the nearest 1/10th of a mg. Data are analyzed by taking the difference of each left ear from the right ear, and then calculating the % inhibition of edema by (((mean Rx/mean irritant))×100)-100.
For example, compound 83 inhibits irritant-induced mouse ear edema by 38% compared to control animals.

[4] = Metabolic stability in human liver S9 fractions; type: in vitro ADME; details: human, 10 μM, pH 7
Text: The therapeutic effectiveness of a test compound can be often directly related to its metabolic stability in vivo. The majority of known, marketed drugs are metabolized by a group of enzymes known as P450 enzymes. The S9 fraction of human liver contains all the P450 enzymes and also cytoplasmic enzymes that may be involved in the metabolism of new chemical entities. Metabolism in vitro using human S9 fractions is a standard assay to evaluate relative metabolic stability of new compounds. The test is performed as follows.
Reagents are thawed on ice and combined to make up a Master Mix as follows: Potassium phosphate (100 mM, pH 7), G6P (0.25 mM), G6PDH (2 U/ml), NADPH (1 mM), UDP (0.25 mM), APPS (0.25 mM), and S9 fraction (2 mg/ml). A volume of 498 μl of the Master mix is dispensed into each microcentrifuge tube. A volume of 2 μl of 2.5 mM test compound (final concentration of 10 μM) is dispensed into the center of the lid of the appropriate tube, and the lids gently closed to prevent mixing. Synchronous combination of test compound and master mix is achieved by simultaneous ten times inversion of the tubes, which are then incubated at 37° C. and shaken at 150 rpm for the appropriate incubation times. While incubation is in progress, all 0 time samples are mixed individually by three times inversion followed by the immediate addition of 500 μl ice cold acetonitrile with three times inversion to stop the reaction. Immediately after each 15 minutes and 30 minutes incubation is complete, ice cold acetonitrile is added to each tube and the tubes mixed by three times inversion. All sample tubes are incubated at −80° C. for a minimum of 15 minutes, thawed and remixed by inversion. Aliquots of 650 μl are transferred to Chromatographic Specialties micro-spin filter system tubes (0.2 μm nylon membrane, C618505) and centrifuged at 13,000 rpm for 48 seconds. The sample filtrates are stored at −80° C.
Sample filtrates are analyzed on LCMS, and percent remaining after 15 and 30 minute incubation is calculated relative to the 0 minute incubation.
The metabolic stability of various compounds are summarized in Table 10 as the percent remaining after 15 or 30 minutes incubation with human liver S9 fractions.

[5] = test system: rat mast cell line (RBL-2H3); experiment: Antigen-induced release of hexosaminidase from a rat mast cell line (RBL-2H3); type: cell-based; details: inhibition of DNP-HSA antigen-induced hexosaminidase release; tested at 0.3, 3, 10 and 30 μM; read-out: Hex IC50
Experimental: The anti-allergic effects of a compound of the present invention was evaluated by measuring its effect on antigen-induced secretion of hexosaminidase from a passively sensitized rat mast cell line. The ability of a test compound to inhibit the release of mast cell granule contents, e.g., histamine and hexosaminidase, is indicative of the anti-allergy and/or anti-asthma activity of the compound. Hexosaminidase is released from the mast cell granule along with histamine and other mediators during antigen challenge. The test is performed as follows.
RBL-2H3 cells are grown in culture and passively sensitized for 1 hour at 37° C. to dinitrophenol (DNP) using anti-human-DNP (IgE). Cells are incubated with test compound for 30 minutes at 37° C. and stimulated with 0.5 μg/ml DNP-HSA (antigen) for 30 minutes. Aliquots of the supernatant are removed and used to measure the amount of hexosaminidase released during challenge with the antigen. […] The effect of each test compound is determined as a percentage of the antigen-induced response (minus background release) obtained in the presence of DMSO alone. These values are used to determine the degrees of inhibition of antigen-induced hexosaminidase release from the cells.

Jurkat clone E6.1 cells = experiment: Antigen-induced (anti-CD3 mAb) calcium flux in Jurkat clone E6.1 cells; type: cell-based; details: 20 μM; anti-CD3 mAb 4 μg/mL; Fura 2AM
Text: Elevation of cytoplasmic calcium concentration is a common and crucial event which follows the activation of many types of cell surface receptors. Increases in intracellular calcium that occur following agonist activation of inositol lipid hydrolysis are the results of calcium release from the endoplasmic reticulum and the influx of calcium through the plasma membrane. Increases in cytosolic calcium concentration are involved in many important cellular responses in the inflammatory process including adhesion, motility, gene expression, proliferation, and degranulation. Changes in intracellular calcium centrations can affect both short and long term cellular responses. An assay method to evaluate a test compound's impact on calcium flux is provided as follows.
The resulting supernatants are discarded and each pellet is washed in 10 mL HBSS. Cell suspensions are accumulated and centrifuged for 5 minutes at 900 RPM to form a cell pellet. The resulting supernatant is discarded and the pellet is resuspended in HBSS at 1×10^7 cells/mL. The cell suspension is transferred to a 20 mm petri dish and incubated at 37° C., 5% CO2 for 20 minutes.
One volume of Fura 2AM is mixed to one volume of detergent Pluronic F127. Cells are labeled with 4 μL of probe solution to each mL of cell suspension. The petri dish is wrapped in aluminum foil to protect from light and placed on a plate shaker for 30 minutes at room temperature.
The following steps are done in the laminar flow hood with the fluorescent lights turned off. The petri dish is removed from the shaker and the labeled cell suspension is transferred to a 15 mL conical tube and washed twice with HBSS as above. The cell pellet is resuspended in 12 mL HBSS and left wrapped in foil for 30 minutes at room temperature. The labeled cell suspension is aliquoted (100 μL/well) into a Dynex 96 well white opaque tissue culture plate. […] Selected compounds were tested for dose related activity. Test samples and activator (anti—CD3 mAb at final concentration of 4 μg/mL, PharMingen) are added manually (50 μL), such that the minimum time to acquire the first data point after stimulation is approximately 30 seconds. The calcium influx response to anti-CD3 mAb is measured as an “end point” assay. The entire plate is read in 100 seconds using a kinetic of 1 second per well.
The plate is read before the addition of anti-CD3 to monitor non-specific effect of samples/drugs. Fluorescence emission is measured at 510 nm with excitation alternating between 340 and 380 every second using an excitation/emission filter pair. Data from these dual wavelengths are represented as a ratio of 2 excitations wavelengths. This ratio is independent of intracellular dye and cell concentrations, enabling real comparison between experiments.

[6] = 0.03 mg/kg, 4 days qd, water vehicle
[7] = 0.1 mg/kg, 4 days qd, water vehicle
[8] = 0.3 mg/kg, 4 days qd, water vehicle
[9] = 1 mg/kg, 4 days qd, water vehicle
[10] = 5 mg/kg/day for 4 days, corn oil vehicle, relative to control animals

Row | SMILES | % inhibition of eosinophils [1, 7] [%] | % inhibition of lymphocytes [1, 7] [%] | % inhibition of neutrophils [1, 7] [%] | % inhibition of eosinophils [1, 8] [%] | % inhibition of lymphocytes [1, 8] [%] | % inhibition of neutrophils [1, 8] [%] | % inhibition of eosinophils [1, 9] [%] | % inhibition of lymphocytes [1, 9] [%] | % inhibition of neutrophils [1, 9] [%] | % inhibition of eosinophils [1, 10] [%] | % inhibition of lymphocytes [1, 10] [%] | % inhibition of neutrophils [1, 10] [%] | half-life [2] [h] | bioavailability [2] [%] | half-life [3] [h] | bioavailability [3] [%] | solubility (physchem; solubility at room temperature) [mg/mL] | other results
1 | C/C=C1/CCC2C3C(CC[C@]12C)[C@@]1(C)CC[C@H](N)CC1[C@@H](O)[C@@H]3O (stereo partly shown) [Compound 28] | 29 | 50 | −10 | 71 | 85 | 66 | 60 | 70 | 41 | 85 | 124 | 87 | 7.5 | ~100 | 15 | 25 to 30 | ~30 (≈ 90 mM) | % inhibition of eosinophils [1, 6]: 5%; % inhibition of lymphocytes [1, 6]: −5%; % inhibition of neutrophils [1, 6]: −26%
2 | C/C=C1/CCC2C3C(CC[C@]12C)[C@@]1(C)CC[C@H](N)CC1[C@@H](O)[C@@H]3O (stereo partly shown) [Compound 83] |  |  |  |  |  |  |  |  |  | 67 | 38 | 34 |  |  |  |  |  | inhibition of irritant-induced mouse ear edema (mouse ear edema): 38%; % remaining after 15 min ([4]; s9, 15 min): 92 ± 19%; % remaining after 30 min ([4]; s9, 30 min): 91 ± 21%
3 | C=C1CCC2C3C(CC[C@]12C)[C@@]1(C)CC[C@H](N)CC1[C@@H](O)[C@@H]3O (stereo partly shown) [Compound 89] | 35 | 2 | 25 | 80 | 70 | 72 | 71 | 6 | 66 | 57 | 64 | 60 | 7.5 | ~100 | 15 | 25 to 30 | ~30 (≈ 93.9 mM) | pIC50 [5]: 4.94; Calcium (% inhibition at 20 μM) (Jurkat clone E6.1 cells): 15.0%; solubility (physchem; solubility in water): > 100 mg/mL
